From ChEMBL document CHEMBL4342462, “Discovery and Characterization of 2,5-Substituted Benzoic Acid Dual Inhibitors of the Anti-apoptotic Mcl-1 and Bfl-1 Proteins” (J Med Chem, 2020)
Calls of active or inactive are those of the source. The calls are words filed in the database; no cut-off is given here.

Key:
[1] = molecular target: T1, Induced myeloid leukemia cell differentiation protein Mcl-1 (Homo sapiens, UniProt Q07820)
Description: Inhibition of N-terminal His6-tagged human Mcl1 expressed in Escherichia coli Rosetta2 DE3 by fluorescent labeled Flu-Bid peptide based fluorescence polarization assay

Bcl-2-related protein A1 [2] = molecular target: T2, Bcl-2-related protein A1 (Homo sapiens, UniProt Q16548)
T2 sequence (Q16548 whole entry): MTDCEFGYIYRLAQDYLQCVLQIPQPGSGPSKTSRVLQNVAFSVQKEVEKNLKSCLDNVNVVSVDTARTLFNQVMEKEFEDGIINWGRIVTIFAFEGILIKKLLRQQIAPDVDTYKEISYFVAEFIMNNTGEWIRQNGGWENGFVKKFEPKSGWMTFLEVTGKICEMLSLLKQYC

[3] = molecular target: T3, Apoptosis regulator Bcl-2 (Homo sapiens, UniProt P10415)
T3 sequence (P10415 whole entry): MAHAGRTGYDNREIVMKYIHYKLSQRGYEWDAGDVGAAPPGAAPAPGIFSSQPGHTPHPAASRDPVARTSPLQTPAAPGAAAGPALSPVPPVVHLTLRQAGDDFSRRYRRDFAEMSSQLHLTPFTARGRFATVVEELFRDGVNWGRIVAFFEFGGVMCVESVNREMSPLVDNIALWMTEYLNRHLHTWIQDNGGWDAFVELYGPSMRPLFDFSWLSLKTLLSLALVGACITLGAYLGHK

Bcl-2-like protein 1 [4] = molecular target: T4, Bcl-2-like protein 1 (Homo sapiens, UniProt Q07817)
T4 sequence (Q07817 whole entry): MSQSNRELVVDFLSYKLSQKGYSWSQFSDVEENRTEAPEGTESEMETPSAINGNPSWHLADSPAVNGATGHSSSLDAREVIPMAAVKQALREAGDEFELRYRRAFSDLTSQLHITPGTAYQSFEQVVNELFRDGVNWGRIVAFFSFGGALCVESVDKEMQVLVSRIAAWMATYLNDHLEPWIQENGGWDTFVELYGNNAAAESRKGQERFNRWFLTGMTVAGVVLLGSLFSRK

[5] = molecular target: T5, Bcl-2-related protein A1 (Homo sapiens) (UniProt Q16548)
T5 sequence (whole entry): T2 sequence (Q16548 whole entry)

[6] = molecular target: T3, Apoptosis regulator Bcl-2; assay: Inhibition of Bcl2 (unknown origin) expressed in Eu-Myc cells assessed as induction of cell death at 75 to 100 uM incubated for 24 hrs by violet LIVE/DEAD fixable dead cell staining based flow cytometry
Bcl-2-like protein 1 [7] = molecular target: T4, Bcl-2-like protein 1; assay: Inhibition of Bcl-xL (unknown origin) expressed in Eu-Myc cells assessed as induction of cell death at 75 to 100 uM incubated for 24 hrs by violet LIVE/DEAD fixable dead cell staining based flow cytometry
[8] = molecular target: T1, Induced myeloid leukemia cell differentiation protein Mcl-1; remark: listed apart in the source
Description: Binding affinity to immobilized biotin-labeled and N-terminal His6-tagged human Mcl-1 expressed in Escherichia coli Rosetta2 DE3 by biolayer interferometry

Bcl-2-related protein A1 [9] = molecular target: T2, Bcl-2-related protein A1; remark: listed apart in the source

T1 sequence (Q07820 whole entry): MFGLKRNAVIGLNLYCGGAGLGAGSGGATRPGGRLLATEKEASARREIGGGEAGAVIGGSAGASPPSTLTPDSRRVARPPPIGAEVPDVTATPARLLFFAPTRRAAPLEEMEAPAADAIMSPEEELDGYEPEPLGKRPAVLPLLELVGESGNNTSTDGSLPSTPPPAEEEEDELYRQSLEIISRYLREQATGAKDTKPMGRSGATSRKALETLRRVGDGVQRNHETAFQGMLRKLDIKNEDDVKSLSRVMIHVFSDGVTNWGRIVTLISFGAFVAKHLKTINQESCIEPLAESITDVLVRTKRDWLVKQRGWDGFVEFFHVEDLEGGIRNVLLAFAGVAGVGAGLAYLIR

Row | SMILES | Ki [1] [nM] | Ki (Bcl-2-related protein A1 [2]) [nM] | also measured
1 | O=C(CCSc1ccc(NS(=O)(=O)c2ccccc2)c(C(=O)O)c1)Nc1ccccc1 | 13100 | 14800 | –
2 | O=C(O)c1cc(SCCc2ccccc2)ccc1NS(=O)(=O)N1CCN(Cc2ccccc2)CC1 | 840 | 1000 | –
3 | O=C(CCCSc1ccc(NS(=O)(=O)c2ccccc2)c(C(=O)O)c1)Nc1ccccc1 | 32800 | > 70000 | –
4 | O=C(Cc1ccccc1)Nc1ccc(NS(=O)(=O)c2ccccc2)c(C(=O)O)c1 | 70400 | > 70000 | –
5 | COc1cccc(CCSc2ccc(NS(=O)(=O)N3CCN(c4ccc(C(C)(C)C)cc4)CC3)c(C(=O)O)c2)c1 | 74 | 100 | Ki [3]: 1200 nM; Ki (Bcl-2-like protein 1 [4]): 6700 nM
6 | CC(C)(C)c1ccc(N2CCN(S(=O)(=O)Nc3ccc(SCCc4ccccc4)cc3C(=O)O)CC2)cc1 | 73 | 84 | Activity [5]: Active; inhibition [6]: Active; inhibition (Bcl-2-like protein 1 [7]): Active; Kd [8]: 490 nM; Kd (Bcl-2-related protein A1 [9]): 920 nM; Ki [3]: 1200 nM; Ki (Bcl-2-like protein 1 [4]): 3500 nM
7 | O=C(O)c1ccccc1NS(=O)(=O)c1ccccc1 | 47800 | > 100000 | –
8 | O=C(O)c1cc(NCCc2ccccc2)ccc1NS(=O)(=O)c1ccccc1 | 4700 | 3800 | –
9 | O=C(O)c1cc(SCCc2ccccc2)ccc1NS(=O)(=O)c1ccccc1 | 1500 | 1600 | Ki [3]: > 25000 nM; Ki (Bcl-2-like protein 1 [4]): > 25000 nM
10 | CC(C)(C)c1ccc(N2CCN(S(=O)(=O)Nc3ccc(SCCC(=O)Nc4ccccc4)cc3C(=O)O)CC2)cc1 | 950 | 1100 | Ki (Bcl-2-like protein 1 [4]): > 25000 nM
11 | CC(C)(C)c1ccc(N2CCN(S(=O)(=O)Nc3ccc(SCCc4cccc(O)c4)cc3C(=O)O)CC2)cc1 | 290 | 250 | –
12 | O=C(O)c1cc(OCCc2ccccc2)ccc1NS(=O)(=O)c1ccccc1 | 6100 | 10600 | –
13 | O=C(O)c1cc(SCCc2ccccc2)ccc1NS(=O)(=O)c1cccs1 | 2000 | 3400 | –
14 | O=C(O)c1cc(SCCc2ccccc2)ccc1NS(=O)(=O)c1ccc(-c2ccccc2)nc1 | 200 | 280 | –
15 | O=C(O)c1cc(SCc2ccccc2)ccc1NS(=O)(=O)c1ccccc1 | 2600 | 3000 | –
16 | O=C(CCc1ccccc1)Nc1ccc(NS(=O)(=O)c2ccccc2)c(C(=O)O)c1 | 19000 | 62000 | –
17 | O=C(O)c1cc(SCCc2ccccc2)ccc1NS(=O)(=O)c1ccc(C2CCCCC2)cc1 | 87 | 170 | –
18 | O=C(O)c1cc(SCCc2ccccc2)ccc1NS(=O)(=O)N1CCC(c2ccccc2)CC1 | 330 | 390 | –
19 | O=C(O)c1cc(SCCc2ccccc2)ccc1NS(=O)(=O)c1ccc(-c2ccccc2)cc1 | 90 | 150 | –
20 | O=C(O)c1cc(SCCc2ccccc2)ccc1NS(=O)(=O)c1ccc(Br)cc1 | 810 | 810 | –
21 | Nc1ccc(SCCc2ccccc2)cc1C(=O)O | 3400 | 3700 | –
22 | O=C(O)c1cc(SCCc2ccccc2)ccc1NS(=O)(=O)N1CCN(c2ccccc2)CC1 | 570 | 760 | Ki [3]: 11700 nM; Ki (Bcl-2-like protein 1 [4]): 6600 nM
23 | O=C(O)c1cc(SCCc2ccccc2)ccc1NS(=O)(=O)CCc1ccccc1 | 1700 | 1700 | –
24 | O=C(Nc1ccc(SCCc2ccccc2)cc1C(=O)O)c1ccccc1 | 2700 | 4600 | –
